The values that follow come from patent US5567676A, “Glycopeptide antibiotics” (Gruppo Lepetit S.p.A, priority 1986, dated 1996).

Where only a bound is given, the exact number is not on record here.

The test system of assay [1] is different microorganism cultures. As to the kind of experiment: In vitro antibacterial activity, standard dilution tests (microorganisms of Table I). It counts as cell-based.
In assay [2] the test system is Staph. aureus L165. Description: MIC, broth dilution test. The class given is cell-based. The note with it: Isosensitest broth, 24 h. (In broth dilution the organism is exposed to a series of concentrations in liquid medium.)
In assay [3] the test system is Staph. haemolyticus L602 (clinical isolate). Description: MIC, broth dilution test. It counts as cell-based. The note with it: Isosensitest broth, 24 h, 37° C.
In assay [4] the test system is Strep. pyogenes L49 C203. Description: MIC, broth dilution test. It counts as cell-based. The following applies: Todd-Hewitt broth, 24 h, 37° C.
Assay [5] concerns Strep. pneumoniae L44 UC41. As to the kind of experiment: MIC, broth dilution test. The class given is cell-based. The following applies: Todd-Hewitt broth, 24 h, 37° C.
For assay [6], the system named is Strep. faecalis L149 ATCC 7080. Description: MIC, broth dilution test. It counts as cell-based. The note with it: Isosensitest broth, 24 h, 37° C.
Assay [7] deals with Strep. mitis L796 (clinical isolate). As to the kind of experiment: MIC, broth dilution test. The class given is cell-based. The note with it: Todd-Hewitt broth, 24 h, 37° C.
Assay [8] relates to Neisseria gonorrhoeae L997 ISM68/126. As to the kind of experiment: MIC, broth dilution test. It counts as cell-based. The note with it: GC base broth +1% Isovitalex, 48 h, CO2-enriched atmosphere, 37° C.
Assay [9] deals with Haemophilus influenzae L 970 type b ATCC 19418. Description: MIC, broth dilution test. It counts as cell-based. The following applies: Brain Heart broth +1% Supplement C, 48 h, 37° C.
Assay [10] relates to Proteus vulgaris L79 X19H ATCC881. As to the kind of experiment: MIC, broth dilution test. It counts as cell-based. The following applies: Isosensitest broth, 24 h, 37° C.
In assay [11] the test system is Pseudomonas aeruginosa L4 ATCC10145. Description: MIC, broth dilution test. The class given is cell-based. The note with it: Isosensitest broth, 24 h, 37° C.
The test system of assay [12] is Ureaplasma urealyticum L1479 (clinical isolate). As to the kind of experiment: MIC, broth dilution test. It counts as cell-based. The following applies: PPLO broth with supplements, 24 h, about 10^4 color-changing units/ml, 37° C.
The subject of assay [13] is Klebsiella pneumoniae L142. As to the kind of experiment: MIC, broth dilution test. The note with it: Isosensitest broth, 24 h, 37° C. It counts as cell-based.
The subject of assay [14] is S. pyogenes C 203 (L 49). Description: Experimental septicemia in the mice. The class given is in vivo, CD-1 mice. The following applies: mice infected i.p. with S. pyogenes C 203 (L 49); compound s.c. immediately after infection; survival on the 7th day, Spearman and Karber. As to the method:
The antimicrobial activity of the compounds of the invention is confirmed also in experimental septicemia in the mice. Control and treatment groups may include ten CD-1 mice (Charles River) weighing 18-22 g. They are infected intraperitoneally with 0.5 ml of bacterial suspension prepared by diluting an overnight culture of S. pyogenes C 203 (L 49) with sterile peptonized saline. Inocula are adjusted so that untreated animals die of septicemia within 48 h. The compounds to be tested are administered subcutaneously immediately after infection. On the 7th day, the ED50 in mg/kg is calculated by the method of Spearman and Karber (D. J. Finney "Statistical Methods in Biological Assay" Griffin, page 524, 1952) from the percentage of surviving animals at each dose.

Assay [15] has as its system Staph. epidermidis L147 ATCC 12228 (coagulase negative). The following applies: Isosensitest broth, 24 h, 37° C.
Assay [16] deals with Clostridium perfringens L290 ISS 30543. The following applies: AC broth, 24 h, anaerobic atmosphere, 37° C.

In the case of “antibiotic A 40926 aminoglucuronyl aglycon”, the “level of antimicrobial activity compared with de-acyl antibiotic A 40926 (Table I)” value in assay [1] is “substantially the same level of antimicrobial activity as that reported above for de-acyl antibiotic A 40926”.
For orientation: ED50 means the dose at which the effect has come halfway, by size or by number of responders. Higher therefore signals weaker potency. Turning to de-acyl antibiotic A 40926, the M.I.C. in assay [2] (Staph. aureus (10^6 cfu/ml)) was found to be 2 µg/mL; in assay [2] (Staph. aureus (30% bovine serum)), 2 µg/mL; in assay [2] (Staph. aureus L165, 37° C., about 10^4-10^5 cfu/ml) it was 1 µg/mL; in [3], 32 µg/mL; in assay [4] it was 0.25 µg/mL; in assay [5], 0.25 µg/mL. Moreover, the M.I.C. was 2 µg/mL in [6]; 0.5 µg/mL in assay [7]; 64 µg/mL in assay [8]; 128 µg/mL in [9]; more than 128 µg/mL in assay [10]; more than 128 µg/mL in assay [11]. Also, the M.I.C. is more than 128 µg/mL in assay [12], more than 128 µg/mL in [13], 2 µg/mL in assay [15] and 0.13 µg/mL in [16]. This substance also came in with an ED50 in assay [14] of 2.33 mg/kg.
Take de-acyl antibiotic A 40926 P: in assay [1], the “level of antimicrobial activity compared with de-acyl antibiotic A 40926 (Table I)” value is given as “substantially the same level of antimicrobial activity as that reported above for de-acyl antibiotic A 40926”.
